This note sets out measurements from patent US20260250320A1, “LIPIDATED PEPTIDE INHIBITORS OF INTERLEUKIN-23 RECEPTOR” (Janssen Pharmaceutica NV, priority 2023, published 2026).

*1 amine or outer side, *2 acyl side, *3 side chain or, on linkers, in order; H or OH if unused. Where a SMILES comes first, the peptide text is derived from it. Bridges are numbered along the chain shown (N, C = ends). Side-chain parts run from the residue outwards. [ ]: non-standard residue; d: D form. The star is where a group is joined. X42 = O=C(O)CCCCCCCCCCCCCCCCC(=O)N[C@H](CO)CCC(=O)*; CH2CH2OCH2CH2OCH2CH2NMe3+ = C[N+](C)(C)CCOCCOCC*; NH(CH2CH2O)2CH2CH2NMe3+ = C[N+](C)(C)CCOCCOCCN*; Trp(7-Me) = Cc1cccc2c(C[C@H](N)C(=O)O)c[nH]c12; C18 diacid = O=C(O)CCCCCCCCCCCCCCCCC(=O)*; γGlu = O=C(O)[C@H](CCC(=O)[*:2])N[*:1]; 2Nal = N[C@@H](Cc1ccc2ccccc2c1)C(=O)O; AEF = NCCOc1ccc(C[C@H](N)C(=O)O)cc1; X2 = C[N+](C)(C)C[C@@H](CC(=O)O)N*; 3Pal = N[C@@H](Cc1cccnc1)C(=O)O; Lys(Me) = CNCCCC[C@H](N)C(=O)O; NMeK = CN[C@@H](CCCCN)C(=O)O; Pen = CC(C)(S)[C@H](N)C(=O)O; Suc = O=C(CCC(=O)[*:2])[*:1]; Thp = NC1(C(=O)O)CCOCC1; AEEA = NCCOCCOCC(=O)O; Sar = CNCC(=O)O Some results are limits rather than exact numbers.

The first assay addresses T1, IL-23R (Homo sapiens, UniProt Q5VWK5).
T1 construct: HEK293 cells containing IL-23R, IL-12Rβ1 and a firefly luciferase reporter gene driven by a STAT-inducible promoter (Promega); host or cells: HEK293
T1 sequence (Q5VWK5 24-629): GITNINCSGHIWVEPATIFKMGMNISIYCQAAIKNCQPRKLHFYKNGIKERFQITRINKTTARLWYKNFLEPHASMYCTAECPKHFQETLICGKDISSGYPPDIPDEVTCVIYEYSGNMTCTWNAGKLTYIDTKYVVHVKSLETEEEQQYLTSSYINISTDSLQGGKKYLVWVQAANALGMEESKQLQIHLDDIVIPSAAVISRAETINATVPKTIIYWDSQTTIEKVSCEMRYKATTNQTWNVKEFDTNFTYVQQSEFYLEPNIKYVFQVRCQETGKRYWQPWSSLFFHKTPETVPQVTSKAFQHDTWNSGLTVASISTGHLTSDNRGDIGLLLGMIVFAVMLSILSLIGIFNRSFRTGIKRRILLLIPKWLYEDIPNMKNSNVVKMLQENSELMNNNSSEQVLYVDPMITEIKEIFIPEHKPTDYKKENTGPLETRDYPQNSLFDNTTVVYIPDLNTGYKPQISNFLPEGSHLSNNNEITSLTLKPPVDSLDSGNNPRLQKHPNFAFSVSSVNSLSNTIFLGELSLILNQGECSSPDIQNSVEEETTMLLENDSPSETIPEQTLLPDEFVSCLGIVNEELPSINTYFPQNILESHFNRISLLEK
The experiment in a line: IL23R Reporter Assay. The class given is cell-based. The following applies: HEK293 cells containing IL-23R, IL-12Rβ1 and STAT-inducible firefly luciferase reporter; 10 ng/mL IL-23 (EC90); 5 h. As to the method: Compounds were serially diluted in 100% (v/v) DMSO) and plated using an Echo acoustic dispenser (Labcyte) into 1536-well non-treated black assay plates (Corning #9146). 3 μL of HEK293 cells containing IL-23R, IL-12Rβ1 and a firefly luciferase reporter gene driven by a STAT-inducible promoter (Promega) were added to the plates (4000 cells/well), followed by 3 μL of 10 ng/mL IL-23 (equivalent to EC90 concentration). After 5 h at 37° C., 5% CO2, 95% relative humidity, cells were placed at 20° C. and treated with BioGlo reagent (Promega) according to the Manufacturer's instructions. Luminescence was measured on a Pherastar FSX (BMG LabTech). Data were normalized to IL-23 treatment (0% inhibition) and 30 μM of control inhibitor (100% inhibition), and IC50 values were determined using a 4-parameter Hill equation.
A general note: A reporter such as luciferase makes a cellular process visible.
As a reminder, the IC50 is the concentration that inhibits the measured activity by half. The low end stands for greater potency, the high end for weaker potency. Compound `CC(=O)N(C)CCCC[C@@H]1NC(=O)[C@H](Cc2c[nH]c3c(C)cccc23)NC(=O)[C@H]([C@@H](C)O)NC(=O)[C@H](CC(=O)N(C)C)NC(=O)[C@@H](NC(=O)COCCOCCNC(=O)COCCOCCNC(=O)CC[C@H](NC(=O)CCCCCCCCCCCCCCCCC(=O)O)C(=O)O)C(C)(C)SSC(C)(C)[C@@H](C(=O)N[C@@H](Cc2ccc(OCCOCCOCC[N+](C)(C)C)cc2)C(=O)N[C@@H](Cc2ccc3ccccc3c2)C(=O)NC2(C(=O)N[C@@H](CCCCN(C)C(C)=O)C(=O)N[C@@H](CC(N)=O)C(=O)N[C@@H](Cc3cccnc3)C(=O)N(C)CC(=O)N(C)C)CCOCC2)NC1=O` [compound 155, HOC18gEPEG2PEG2CO-Pen(3)-N(N(Me)2)-T-7MeW-K(NMeAc)-Pen(3)-APEG3F-2Nal-THP-K(NMeAc)-N-3Pya-Sar-CON(Me)2] ({C18 diacid-γGlu-AEEA-AEEA}-[Pen]D(NMe2)T[Trp(7-Me)][Lys(Me)](Ac)[Pen]Y(CH2CH2OCH2CH2OCH2CH2NMe3+)[2Nal][Thp][Lys(Me)](Ac)N[3Pal][Sar]-NMe2; disulfide 1-6) yielded an IC50 of under 50 nM.

A further assay relates to IL-23-stimulated phosphorylated STAT3 in peripheral blood mononuclear cells (PBMCs). Put plainly: PBMC pSTAT3 Assay. The class given is cell-based. The following applies: PBMCs from healthy donors; 30 min preincubation with peptide; IL-23 5 ng/mL for 30 min; phospho-STAT3 by MSD. As to the method:
Cryopreserved peripheral blood mononuclear cells (PBMCs) from healthy donors were thawed and washed twice in ImmunoCult-XF T cell expansion medium (XF-TCEM) supplemented with CTL anti-aggregate wash. The cells were counted, resuspended at 2-6×10^5 cells per mL XF-TCEM supplemented with penicillin/streptomycin and 100 ng/mL […] (BioLegend, 579404), and cultured in tissue culture flasks coated with anti-CD3 (eBioscience, 16-0037-85 or BD Pharmingen, 555329) at 37° C. in 5% CO2. On day 4 of culture, PBMCs were collected, washed twice in RPMI-1640 supplemented with 0.1% BSA (RPMI-BSA), and incubated in RPMI-BSA in upright tissue culture flasks for ~4 hours at 37° C. in 5% CO2. Following this 'starvation,' a total of 6×10^4 cells in 30 μL RPMI-BSA was transferred into each well of a 384-well plate pre-spotted with peptide or DMSO. The cells were incubated for 30 minutes prior to the addition of […] at a final concentration of 5 ng/mL. The cells were stimulated with cytokine for 30 minutes at 37° C. in 5% CO2, transferred onto ice for 10 minutes, and lysed. Cell lysates were stored at -80° C. until phosphorylated STAT3 was measured using the phospho-STAT panel kit (Meso Scale Discovery, […]). Results are provided below. • A: IC50<0.5 nM; • B: 0.5 nM≤IC50<5 nM; • C: 5 nM≤IC50; • ND: Not determined
Regarding `CC(=O)NCCCC[C@@H]1NC(=O)[C@H](Cc2c[nH]c3c(C)cccc23)NC(=O)[C@H]([C@@H](C)O)NC(=O)[C@H](CCCCNC(=O)COCCOCCNC(=O)COCCOCCNC(=O)CC[C@H](NC(=O)CCCCCCCCCCCCCCCCC(=O)O)C(=O)O)NC(=O)[C@@H](NC(C)=O)C(C)(C)SSC(C)(C)[C@@H](C(=O)N[C@@H](Cc2ccc(OCCN)cc2)C(=O)N[C@@H](Cc2ccc3ccccc3c2)C(=O)NC2(C(=O)N[C@@H](CCCCNC(=O)CCC(=O)N[C@H](CC(=O)O)C[N+](C)(C)C)C(=O)N[C@@H](CC(N)=O)C(=O)N[C@@H](Cc3cccnc3)C(=O)N(C)CC(N)=O)CCOCC2)NC1=O` [compound 14, MeCO-Pen(3)-K(PEG2PEG2gEC18OH)-T-7MeW-K(Ac)-Pen(3)-AEF-2Nal-THP-K(d)-N-3Pya-Sar-CONH2] (Ac-[Pen]K([AEEA-AEEA-γGlu-C18 diacid])T[Trp(7-Me)]K(Ac)[Pen][AEF][2Nal][Thp]K([Suc-X2])N[3Pal][Sar]-NH2; disulfide 1-6), the IC50 was under 0.5 nM.
On the same count and under the same terms, to `CC(=O)NCCCC[C@@H]1NC(=O)[C@H](Cc2c[nH]c3c(C)cccc23)NC(=O)[C@H]([C@@H](C)O)NC(=O)[C@H](CC(N)=O)NC(=O)[C@@H](NC(=O)[C@@H](CCCNC(=N)N)NC(C)=O)C(C)(C)SSC(C)(C)[C@@H](C(=O)N[C@@H](Cc2ccc(OCCNC(=O)CCC(=O)N[C@H](CC(=O)O)C[N+](C)(C)C)cc2)C(=O)N[C@@H](Cc2ccc3ccccc3c2)C(=O)NC2(C(=O)N[C@@H](CCC(=O)O)C(=O)N[C@@H](CC(N)=O)C(=O)N[C@@H](Cc3cccnc3)C(=O)N(C)[C@@H](CCCCNC(=O)COCCOCCNC(=O)COCCOCCNC(=O)CC[C@H](NC(=O)CCCCCCCCCCCCCCCCC(=O)O)C(=O)O)C(N)=O)CCOCC2)NC1=O` [compound 16, MeCO-r-Pen(3)-N-T-7MeW-K(Ac)-Pen(3)-AEF(d)-2Nal-THP-E-N-3Pya-NMeK(PEG2PEG2gEC18OH)-CONH2] (Ac-[dR][Pen]NT[Trp(7-Me)]K(Ac)[Pen][AEF]([Suc-X2])[2Nal][Thp]EN[3Pal][NMeK]([AEEA-AEEA-γGlu-C18 diacid])-NH2; disulfide 2-7) belongs under 0.5 nM.
`CC(=O)NCCCC[C@@H]1NC(=O)[C@H](Cc2c[nH]c3c(C)cccc23)NC(=O)[C@H]([C@@H](C)O)NC(=O)[C@H](CC(N)=O)NC(=O)[C@@H](NC(=O)[C@@H](CCCCNC(=O)COCCOCCNC(=O)COCCOCCNC(=O)CC[C@@H](CO)NC(=O)CCCCCCCCCCCCCCCCC(=O)O)NC(C)=O)C(C)(C)SSC(C)(C)[C@@H](C(=O)N[C@@H](Cc2ccc(OCCNC(=O)CCC(=O)N[C@H](CC(=O)O)C[N+](C)(C)C)cc2)C(=O)N[C@@H](Cc2ccc3ccccc3c2)C(=O)NC2(C(=O)N[C@@H](CCC(=O)O)C(=O)N[C@@H](CC(N)=O)C(=O)N[C@@H](Cc3cccnc3)C(=O)N(C)CC(N)=O)CCOCC2)NC1=O` [compound 17, MeCO-k(PEG2PEG2gEC18OH)-Pen(3)-N-T-7MeW-K(Ac)-Pen(3)-AEF(d)-2Nal-THP-E-N-3Pya-Sar-CONH2] (Ac-[dK]([AEEA-AEEA-X42])[Pen]NT[Trp(7-Me)]K(Ac)[Pen][AEF]([Suc-X2])[2Nal][Thp]EN[3Pal][Sar]-NH2; disulfide 2-7) yielded an IC50 of under 0.5 nM.
Still for that read-out and setting: as for `CC(=O)NCCCC[C@@H]1NC(=O)[C@H](Cc2c[nH]c3c(C)cccc23)NC(=O)[C@H]([C@@H](C)O)NC(=O)[C@H](CC(N)=O)NC(=O)[C@@H](NC(=O)[C@@H](CCCNC(=N)N)NC(C)=O)C(C)(C)SSC(C)(C)[C@@H](C(=O)N[C@@H](Cc2ccc(OCCN)cc2)C(=O)N[C@@H](Cc2ccc3ccccc3c2)C(=O)NC2(C(=O)N[C@@H](CCC(=O)O)C(=O)N[C@@H](CC(N)=O)C(=O)N[C@@H](Cc3cccnc3)C(=O)N(C)CC(=O)N[C@@H](CCCCNC(=O)COCCOCCNC(=O)COCCOCCNC(=O)CC[C@H](NC(=O)CCCCCCCCCCCCCCCCC(=O)O)C(=O)O)C(=O)NCCOCCOCC[N+](C)(C)C)CCOCC2)NC1=O` [compound 40, MeCO-r-Pen(3)-N-T-7MeW-K(Ac)-Pen(3)-AEF-2Nal-THP-E-N-3Pya-Sar-K(PEG2PEG2gEC18OH)-CONH(PEG3a)] (Ac-[dR][Pen]NT[Trp(7-Me)]K(Ac)[Pen][AEF][2Nal][Thp]EN[3Pal][Sar]K([AEEA-AEEA-γGlu-C18 diacid])-{NH(CH2CH2O)2CH2CH2NMe3+}; disulfide 2-7), the figure is 0.5 to 5 nM; as for `CC(=O)NCCCC[C@@H]1NC(=O)[C@H](Cc2c[nH]c3c(C)cccc23)NC(=O)[C@H]([C@@H](C)O)NC(=O)[C@H](CC(N)=O)NC(=O)[C@@H](NC(C)=O)C(C)(C)SSC(C)(C)[C@@H](C(=O)N[C@@H](Cc2ccc(OCCCCC[N+](C)(C)C)cc2)C(=O)N[C@@H](Cc2ccc3ccccc3c2)C(=O)NC2(C(=O)N[C@@H](CCCCNC(=O)COCCOCCNC(=O)COCCOCCNC(=O)CC[C@H](NC(=O)CCCCCCCCCCCCCCCCC(=O)O)C(=O)O)C(=O)N[C@@H](CC(N)=O)C(=O)N[C@@H](Cc3ccccn3)C(=O)N(C)CC(N)=O)CCOCC2)NC1=O` [compound 85, MeCO-Pen(3)-N-T-7MeW-K(Ac)-Pen(3)-TMAPF-2Nal-THP-K(PEG2PEG2gEC18OH)-N-3Pya-Sar-CONH2], under 0.5 nM.
Same read-out and setting: to `CC(=O)NCCCC[C@@H]1NC(=O)[C@H](Cc2c[nH]c3c(C)cccc23)NC(=O)[C@H]([C@@H](C)O)NC(=O)[C@H](CC(N)=O)NC(=O)[C@@H](NC(C)=O)C(C)(C)SSC(C)(C)[C@@H](C(=O)N[C@@H](Cc2ccc(OCCCCC[N+](C)(C)C)cc2)C(=O)N[C@@H](Cc2ccc3ccccc3c2)C(=O)NC2(C(=O)N[C@@H](CCCCNC(=O)COCCOCCNC(=O)COCCOCCNC(=O)CC[C@H](NC(=O)CCCCCCCCCCCCCCCCC(=O)O)C(=O)O)C(=O)N[C@@H](N)C(=O)N[C@@H](Cc3ccccn3)C(=O)N(C)CC(N)=O)CCOCC2)NC1=O` [compound 86, MeCO-Pen(3)-N-T-7MeW-K(NMecPEG3a)-Pen(3)-AEF-2Nal-THP-K(PEG2PEG2gEC18OH)-N-3Pya-Sar-CONH2] belongs under 0.5 nM.
